Test results published in PMC9661477, “New Dual P-Glycoprotein (P-gp) and Human Carbonic Anhydrase XII (hCA XII) Inhibitors as Multidrug Resistance (MDR) Reversers in Cancer Cells” (Journal of Medicinal Chemistry, 2022).
Structures can show the parent of a compound that is named as a salt. Where two headings read alike, the source gives them in different places.

How the values were obtained:
[1] = target: hCA IX (Homo sapiens, UniProt Q16790); assay: stopped-flow CO2 hydrase assay, hCA IX
Text: (§1) An SX.18MV-R Applied Photophysics (Oxford, U.K.) stopped-flow instrument has been used to assay the catalytic/inhibition of various CA isozymes.[38] […] The inhibition constants were obtained by nonlinear least-squares methods using the Cheng–Prusoff equation, as reported earlier,[32] and represent the mean from at least three different determinations.

[2] = target: hCA I (Homo sapiens, UniProt P00915); assay: stopped-flow CO2 hydrase assay, hCA I; details: read-out: Ki hCA I; stopped-flow technique, mean from three different assays
Text: as §1

[3] = target: hCA II (Homo sapiens, UniProt P00918); assay: stopped-flow CO2 hydrase assay, hCA II; details: read-out: Ki hCA II; stopped-flow technique, mean from three different assays
Text: as §1

[4] = read-out: Ki hCA IX, stopped-flow technique, mean from three different assays

hCA I, sequence (P00915 whole entry): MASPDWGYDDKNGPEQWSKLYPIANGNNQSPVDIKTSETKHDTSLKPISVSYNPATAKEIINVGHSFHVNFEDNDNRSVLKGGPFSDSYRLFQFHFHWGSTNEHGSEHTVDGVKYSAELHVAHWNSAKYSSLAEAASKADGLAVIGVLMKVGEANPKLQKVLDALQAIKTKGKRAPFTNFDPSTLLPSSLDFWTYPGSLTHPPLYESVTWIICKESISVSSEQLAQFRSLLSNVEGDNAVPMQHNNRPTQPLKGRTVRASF

| SMILES | melting point [°C] | further results |
| --- | --- | --- |
| COc1cc(/C=C/C(=O)OCCCN(CCCCCOC(=O)c2cc(OC)c(OC)c(OC)c2)CCCOc2ccc3ccc(=O)oc3c2)cc(OC)c1OC (as salt: hydrochloride) [Compound 4, (E)-5-((3-((2-Oxo-2H-chromen-7-yl)oxy)propyl)(3-((3-(3,4,5-trimethoxyphenyl)acryloyl)oxy)propyl)amino)pentyl 3,4,5-Trimethoxybenzoate] | 74 to 77 | – |
| COc1cc(/C=C/C(=O)OCCCN(CCCCCCOC(=O)c2cc(OC)c(OC)c(OC)c2)CCCOc2ccc3ccc(=O)oc3c2)cc(OC)c1OC (as salt: hydrochloride) [Compound 13, (E)-6-((3-((2-Oxo-2H-chromen-7-yl)oxy)propyl)(3-((3-(3,4,5-trimethoxyphenyl)acryloyl)oxy)propyl)amino)hexyl 3,4,5-Trimethoxybenzoate] | 78 to 81 | – |
| COc1cc(C(=O)OCCCCCCN(CCCOC(=O)c2cc(OC)c(OC)c(OC)c2)CCCOc2ccc3ccc(=O)oc3c2)cc(OC)c1OC (as salt: hydrochloride) [Compound 14, 6-((3-((2-Oxo-2H-chromen-7-yl)oxy)propyl)(3-((3,4,5-trimethoxybenzoyl)oxy)propyl)amino)hexyl 3,4,5-Trimethoxybenzoate] | 83 to 85 | – |
| COc1cc(/C=C/C(=O)OCCCN(CCCCCCOC(=O)c2c3ccccc3cc3ccccc23)CCCOc2ccc3ccc(=O)oc3c2)cc(OC)c1OC (as salt: hydrochloride) [Compound 16, (E)-6-((3-((2-Oxo-2H-chromen-7-yl)oxy)propyl)(3-((3-(3,4,5-trimethoxyphenyl)acryloyl)oxy)propyl)amino)hexyl Anthracene-9-carboxylate] | 92 to 95 | – |
| COc1cc(/C=C/C(=O)OCCCCCCCN(CCCOC(=O)c2cc(OC)c(OC)c(OC)c2)CCCOc2ccc3ccc(=O)oc3c2)cc(OC)c1OC (as salt: hydrochloride) [Compound 20, (E)-3-((3-((2-Oxo-2H-chromen-7-yl)oxy)propyl)(7-((3-(3,4,5-trimethoxyphenyl)acryloyl)oxy)heptyl)amino)propyl 3,4,5-Trimethoxybenzoate] | 84 to 87 | – |
| COc1cc(/C=C/C(=O)OCCCCCN(CCCOC(=O)c2c3ccccc3cc3ccccc23)CCCOc2ccc3ccc(=O)oc3c2)cc(OC)c1OC (as salt: hydrochloride) [Compound 3, (E)-3-((3-((2-Oxo-2H-chromen-7-yl)oxy)propyl)(5-((3-(3,4,5-trimethoxyphenyl)acryloyl)oxy)pentyl)amino)propyl Anthracene-9-carboxylate] | 94 to 97 | – |
| O=C(OCCCCCCCN(CCCOC(=O)c1c2ccccc2cc2ccccc12)CCCOc1ccc2ccc(=O)oc2c1)c1c2ccccc2cc2ccccc12 (as salt: hydrochloride) [Compound 27, 3-((7-((Anthracene-9-carbonyl)oxy)heptyl)(3-((2-oxo-2H-chromen-7-yl)oxy)propyl)amino)propyl Anthracene-9-carboxylate] | 117 to 119 | – |
| COc1cc(C(=O)OCCCCCCN(CCCOC(=O)c2c3ccccc3cc3ccccc23)CCCOc2ccc3ccc(=O)oc3c2)cc(OC)c1OC (as salt: hydrochloride) [Compound 15, 3-((3-((2-Oxo-2H-chromen-7-yl)oxy)propyl)(6-((3,4,5-trimethoxybenzoyl)oxy)hexyl)amino)propyl Anthracene-9-carboxylate] | 148 to 151 | – |
| O=C(OCCCCCN(CCCOC(=O)c1c2ccccc2cc2ccccc12)CCCOc1ccc2ccc(=O)oc2c1)c1c2ccccc2cc2ccccc12 (as salt: hydrochloride) [Compound 9, 3-((5-((Anthracene-9-carbonyl)oxy)pentyl)(3-((2-oxo-2H-chromen-7-yl)oxy)propyl)amino)propyl Anthracene-9-carboxylate] | 118 to 121 | – |
| COc1cc(C(=O)OCCCCCCCN(CCCOC(=O)c2cc(OC)c(OC)c(OC)c2)CCCOc2ccc3ccc(=O)oc3c2)cc(OC)c1OC (as salt: hydrochloride) [Compound 23, 7-((3-((2-Oxo-2H-chromen-7-yl)oxy)propyl)(3-((3,4,5-trimethoxybenzoyl)oxy)propyl)amino)heptyl 3,4,5-Trimethoxybenzoate] | 74 to 77 | – |
| COc1cc(/C=C/C(=O)OCCCCCN(CCCOC(=O)/C=C/c2cc(OC)c(OC)c(OC)c2)CCCOc2ccc3ccc(=O)oc3c2)cc(OC)c1OC (as salt: hydrochloride) [Compound 1, (E)-5-((3-((2-Oxo-2H-chromen-7-yl)oxy)propyl)(3-(((E)-3-(3,4,5-trimethoxyphenyl)acryloyl)oxy)propyl)amino)pentyl 3-(3,4,5-Trimethoxyphenyl)acrylate] | 81 to 84 | – |
| COc1cc(/C=C/C(=O)OCCCN(CCCCCOC(=O)c2c3ccccc3cc3ccccc23)CCCOc2ccc3ccc(=O)oc3c2)cc(OC)c1OC (as salt: hydrochloride) [Compound 7, (E)-5-((3-((2-Oxo-2H-chromen-7-yl)oxy)propyl)(3-((3-(3,4,5-trimethoxyphenyl)acryloyl)oxy)propyl)amino)pentyl Anthracene-9-carboxylate] | 92 to 95 | – |
| COc1cc(/C=C/C(=O)OCCCCCN(CCCOC(=O)c2c3ccccc3cc3ccccc23)CCCOc2ccc3ccc(=O)oc3c2)cc(OC)c1OC [Compound 3, (E)-3-((3-((2-Oxo-2H-chromen-7-yl)oxy)propyl)(5-((3-(3,4,5-trimethoxyphenyl)acryloyl)oxy)pentyl)amino)propyl Anthracene-9-carboxylate] | – | Ki [1]: < 10 nM; Ki [1, 4]: 7.9 nM; Ki [2]: > 10000 nM; Ki [3]: > 10000 nM |
| O=C(OCCCCCCCN(CCCOC(=O)c1c2ccccc2cc2ccccc12)CCCOc1ccc2ccc(=O)oc2c1)c1c2ccccc2cc2ccccc12 [Compound 27, 3-((7-((Anthracene-9-carbonyl)oxy)heptyl)(3-((2-oxo-2H-chromen-7-yl)oxy)propyl)amino)propyl Anthracene-9-carboxylate] | – | Ki [1, 4]: 102 nM; Ki [2]: > 10000 nM; Ki [3]: > 10000 nM |

Further lines, with some results ahead:

| melting point [°C] | SMILES | further results |
| --- | --- | --- |
| 120 to 123 | COc1cc(C(=O)OCCCN(CCCCCOC(=O)c2c3ccccc3cc3ccccc23)CCCOc2ccc3ccc(=O)oc3c2)cc(OC)c1OC (as salt: hydrochloride) [Compound 8, 5-((3-((2-Oxo-2H-chromen-7-yl)oxy)propyl)(3-((3,4,5-trimethoxybenzoyl)oxy)propyl)amino)pentyl Anthracene-9-carboxylate] | – |
| 87 to 90 | COc1cc(C(=O)OCCCN(CCCCCCOC(=O)c2c3ccccc3cc3ccccc23)CCCOc2ccc3ccc(=O)oc3c2)cc(OC)c1OC (as salt: hydrochloride) [Compound 17, 6-((3-((2-Oxo-2H-chromen-7-yl)oxy)propyl)(3-((3,4,5-trimethoxybenzoyl)oxy)propyl)amino)hexyl Anthracene-9-carboxylate] | – |
| 99 to 102 | COc1cc(/C=C/C(=O)OCCCCCCN(CCCOC(=O)c2c3ccccc3cc3ccccc23)CCCOc2ccc3ccc(=O)oc3c2)cc(OC)c1OC (as salt: hydrochloride) [Compound 12, (E)-3-((3-((2-Oxo-2H-chromen-7-yl)oxy)propyl)(6-((3-(3,4,5-trimethoxyphenyl)acryloyl)oxy)hexyl)amino)propyl Anthracene-9-carboxylate] | – |
| 75 to 77 | COc1cc(C(=O)OCCCCCCCN(CCCOC(=O)c2c3ccccc3cc3ccccc23)CCCOc2ccc3ccc(=O)oc3c2)cc(OC)c1OC (as salt: hydrochloride) [Compound 24, 3-((3-((2-Oxo-2H-chromen-7-yl)oxy)propyl)(7-((3,4,5-trimethoxybenzoyl)oxy)heptyl)amino)propyl Anthracene-9-carboxylate] | – |
| 100 to 102 | COc1cc(/C=C/C(=O)OCCCCCCCN(CCCOC(=O)c2c3ccccc3cc3ccccc23)CCCOc2ccc3ccc(=O)oc3c2)cc(OC)c1OC (as salt: hydrochloride) [Compound 21, (E)-3-((3-((2-Oxo-2H-chromen-7-yl)oxy)propyl)(7-((3-(3,4,5-trimethoxyphenyl)acryloyl)oxy)heptyl)amino)propyl Anthracene-9-carboxylate] | – |
| 107 to 110 | COc1cc(/C=C/C(=O)OCCCN(CCCCCCCOC(=O)c2c3ccccc3cc3ccccc23)CCCOc2ccc3ccc(=O)oc3c2)cc(OC)c1OC (as salt: hydrochloride) [Compound 25, (E)-7-((3-((2-Oxo-2H-chromen-7-yl)oxy)propyl)(3-((3-(3,4,5-trimethoxyphenyl)acryloyl)oxy)propyl)amino)heptyl Anthracene-9-carboxylate] | – |
| 136 to 139 | O=C(OCCCCCCN(CCCOC(=O)c1c2ccccc2cc2ccccc12)CCCOc1ccc2ccc(=O)oc2c1)c1c2ccccc2cc2ccccc12 (as salt: hydrochloride) [Compound 18, 3-((6-((Anthracene-9-carbonyl)oxy)hexyl)(3-((2-oxo-2H-chromen-7-yl)oxy)propyl)amino)propyl Anthracene-9-carboxylate] | – |
| 97 to 99 | COc1cc(C(=O)OCCCN(CCCCCCCOC(=O)c2c3ccccc3cc3ccccc23)CCCOc2ccc3ccc(=O)oc3c2)cc(OC)c1OC (as salt: hydrochloride) [Compound 26, 7-((3-((2-Oxo-2H-chromen-7-yl)oxy)propyl)(3-((3,4,5-trimethoxybenzoyl)oxy)propyl)amino)heptyl Anthracene-9-carboxylate] | – |
| 84 to 87 | COc1cc(C(=O)OCCCCCN(CCCOC(=O)c2cc(OC)c(OC)c(OC)c2)CCCOc2ccc3ccc(=O)oc3c2)cc(OC)c1OC (as salt: hydrochloride) [Compound 5, 5-((3-((2-Oxo-2H-chromen-7-yl)oxy)propyl)(3-((3,4,5-trimethoxybenzoyl)oxy)propyl)amino)pentyl 3,4,5-Trimethoxybenzoate] | – |
